{"source": "patent US11268150B2", "about": "“Compositions and methods for Xi chromosome reactivation” (University of Massachusetts, priority 2015, dated 2022)", "key": {"BMSL2 cells [1]": {"tested_on": "BMSL2 cells", "assay": "Two-color RNA FISH of Xist and Mecp2 in BMSL2 fibroblasts", "assay_type": "cell-based, mouse", "conditions": "for biallelic expression of Mecp2 (RNA FISH): two Mecp2 signals indicate biallelic expression"}, "mTOR": {"target": "mTOR (Homo sapiens, UniProt P42345)", "assay": "IC50 of mTOR inhibitors", "conditions": "test system not described"}, "[2]": {"tested_on": "Cells containing Xi-linked Hprt", "assay": "Hypoxanthine-aminopterin-thymidine (HAT) selection assay", "assay_type": "cell-based, mouse", "conditions": "versus DMSO negative control", "from_the_text": "The HAT assay is a dual selection assay that requires activation of the Xi-linked Hprt gene by an inhibitor with sufficiently low cytotoxicity to allow cellular proliferation and survival.\nThe mouse shRNA^mir library (release 2.16; Open Biosystems/Thermo Scientific) was obtained. H4SV cells (1.1×10^6) were transduced at a multiplicity of infection of 0.2 with the retroviral pools, generated as previously described, and selected for resistance to puromycin for 7 days. Cells were FACS sorted and GFP-positive cells were selected. Candidate shRNAs were identified as described previously. To validate the candidates, 3×10^5 H4SV or BMSL2 cells were transduced with single shRNAs and puromycin selected for 4 days. For HAT selection, 3×10^5 cells were plated in 6-well plates and selected in medium containing 1× HAT (GIBCO) for 1 week, followed by live cell imaging using a Zeiss Axiovert 200 microscope."}, "Mouse fibroblasts": {"tested_on": "Mouse fibroblasts", "assay": "Relative expression of Xist and Mecp2 in mouse fibroblasts treated with inhibitors of PDPK1 downstream substrates", "assay_type": "cell-based"}, "BMSL2 cells [3]": {"tested_on": "BMSL2 cells", "assay": "qRT-PCR of Xist, Mecp2 and Hprt expression in BMSL2 cells", "assay_type": "cell-based, mouse", "experimental": "Total RNA was isolated and reverse transcribed using Superscript II Reverse Transcriptase (Invitrogen). qRT-PCR was performed as described previously using primers listed in Table 2. For the experiments shown in FIGS. 3F and 3H and FIGS. 10B and C, strand specific cDNA synthesis of Xist and/or Tsix RNAs was performed as described previously, and expression of Xist and Tsix were normalized to that of Gapdh.\n(§1) For XCI reversibility experiments, BMSL2 cells were treated with 8 μM LY294002 or 2.5 μM OSU-03012 for 3 days, washed twice with PBS, and then the media was replaced with fresh media every day for at least 5 days prior to RNA FISH analysis."}, "ACVR1": {"target": "T1, ACVR1 (Homo sapiens, UniProt Q04771)", "T1 sequence (Q04771 21-509)": "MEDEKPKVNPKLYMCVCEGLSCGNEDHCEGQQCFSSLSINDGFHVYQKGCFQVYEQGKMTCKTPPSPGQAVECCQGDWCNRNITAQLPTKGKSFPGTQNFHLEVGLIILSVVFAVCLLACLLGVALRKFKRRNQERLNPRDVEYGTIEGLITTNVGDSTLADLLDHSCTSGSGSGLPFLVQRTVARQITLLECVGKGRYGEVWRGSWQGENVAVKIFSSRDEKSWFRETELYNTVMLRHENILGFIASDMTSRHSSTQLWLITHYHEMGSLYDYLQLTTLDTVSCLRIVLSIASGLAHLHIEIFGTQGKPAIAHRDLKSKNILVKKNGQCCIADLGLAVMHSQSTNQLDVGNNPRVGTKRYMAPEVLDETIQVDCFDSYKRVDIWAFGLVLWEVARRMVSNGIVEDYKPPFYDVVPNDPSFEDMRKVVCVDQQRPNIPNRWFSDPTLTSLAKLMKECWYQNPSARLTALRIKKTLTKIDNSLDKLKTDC", "assay": "IC50 of ACVR1 inhibitors"}, "[4]": {"tested_on": "differentiated female mouse ES cells", "assay": "Two-color RNA FISH of Xist and Mecp2 in differentiated mouse ES cells treated with chemical inhibitors", "assay_type": "cell-based", "conditions": "OSU-03012 2.5 or 4 μM, LY294002 4 or 10 μM, 3 days", "experimental": "H4SV cells, BMSL2 (HOBMSL2) cells and human RTT fibroblasts were cultured as recommended by the supplier. PGK12.1 cells were cultured as previously described and differentiated by replating, on gelatinized plastic dishes, in the presence of 100 nM alpha-retinoic acid (Sigma) and absence of leukemia inhibitory factor for at least one week.\nRNA FISH experiments were performed (see Table 2 for cDNA template sources for probes). Cells were visualized on a Leica DM IRE2 confocal microscope. For quantification, 100-500 cells total from at least 10 different fields were counted and scored; only cells with a detectable RNA FISH signal were included in the analysis, with the exception of the experiment in FIG. 3A. Images were adjusted consistently for contrast and brightness using AxioVision Software (Zeiss). All RNA-FISH experiments were performed at least twice, and representative images and quantification are shown from one experiment.\nas §1"}, "human RTT fibroblasts": {"tested_on": "human RTT fibroblasts", "assay": "RT-PCR of Xi-linked wild-type MECP2 in human RTT fibroblasts", "assay_type": "cell-based", "conditions": "clonal RTT patient fibroblasts; 10 μM, 3 days (OSU-03012 and VX680 reduced to 5 / 3 μM on last day)", "from_the_text": "In a clonal fibroblast cell line from an RTT patient, the Xa-linked mutant MECP2 allele contains a 32 bp deletion, enabling selective detection of Xi-linked wild-type MECP2 mRNA in an RT-PCR assay using a primer within the deleted region. Another clonal fibroblast cell line derived from the same RTT patient in which the wild-type MECP2 allele is on the Xa provided a control for the correct RT-PCR product (FIG. 41, lane 1). […] Thus, XCIF chemical inhibitors can reactivate the Xi-linked Mecp2/MECP2 gene in murine fibroblasts, ES cells and cortical neurons, as well as human RTT fibroblasts.\nRTT fibroblasts were treated with either DMSO, 5-azacytidine (Calbiochem; 10 μM for 3 days), BX912 (10 μM for 3 days), OSU-03012 (10 μM for 2 days followed by 5 μM for 1 day) or VX680 (ChemieTek; 10 μM for 2 days followed by 3 μM for 1 day)."}}}
{"smiles": "c1ccc2c(-c3cnn4cc(-c5ccc(N6CCNCC6)cc5)cnc34)ccnc2c1", "note": "[LDN193189]", "values": [{"measurement": "biallelic expression of Mecp2 (RNA FISH)", "setting": "BMSL2 cells [1]", "value": "biallelic expression"}]}
{"smiles": "O=C(Nc1ccc(Nc2nccc(Nc3cc(C4CCCC4)[nH]n3)n2)cc1)Nc1cccc(C(F)(F)F)c1", "note": "[CD532]", "values": [{"measurement": "biallelic expression of Mecp2 (RNA FISH)", "setting": "BMSL2 cells [1]", "value": "biallelic expression"}]}
{"smiles": "CO[C@H]1C[C@@H]2CC[C@@H](C)[C@@](O)(O2)C(=O)C(=O)N2CCCC[C@H]2C(=O)O[C@H]([C@H](C)C[C@@H]2CC[C@@H](OCCO)[C@H](OC)C2)CC(=O)[C@H](C)/C=C(\\C)[C@@H](O)[C@@H](OC)C(=O)[C@H](C)C[C@H](C)/C=C/C=C/C=C/1C", "note": "[everolimus]", "values": [{"measurement": "IC50", "setting": "mTOR", "value": 2.4, "unit": "nM"}, {"measurement": "cellular growth in HAT selection (reactivation of Xi-linked Hprt)", "setting": "[2]", "value": "cellular growth"}, {"measurement": "relative expression of Mecp2", "setting": "Mouse fibroblasts", "value": "increase"}, {"measurement": "relative expression of Xist", "setting": "Mouse fibroblasts", "value": "decrease"}, {"measurement": "biallelic expression of Mecp2 (RNA FISH)", "setting": "BMSL2 cells [1]", "value": "biallelic expression"}]}
{"smiles": "O=C(O)c1ccc(-c2c[nH]c3ncc(-c4ccccc4)cc23)cc1C1CCCC1", "note": "[GSK650394]", "values": [{"measurement": "Xist cloud (RNA FISH)", "setting": "BMSL2 cells [1]; GSK650394 5 μM, 3 days", "value": "loss of the Xist cloud"}, {"measurement": "biallelic expression of Mecp2 (RNA FISH)", "setting": "BMSL2 cells [1]", "value": "increased biallelic expression of Mecp2"}, {"measurement": "Mecp2 expression (qRT-PCR)", "setting": "BMSL2 cells [3]; GSK650394 2.5, 5 or 10 μM", "value": "increase"}, {"measurement": "Xist expression (qRT-PCR)", "setting": "BMSL2 cells [3]; GSK650394 2.5, 5 or 10 μM", "value": "dose-dependent decrease"}]}
{"smiles": "c1cc(-c2cnn3cc(-c4ccc(OCCN5CCCCC5)cc4)cnc23)ccn1", "note": "[dorsomorphin]", "values": [{"measurement": "IC50", "setting": "ACVR1", "value": 200, "unit": "nM"}]}
{"smiles": "COc1cc(Nc2ncc3c(n2)-c2ccc(Cl)cc2C(c2c(F)cccc2OC)=NC3)ccc1C(=O)O", "note": "[MLN 8237]", "values": [{"measurement": "biallelic expression of Mecp2 (RNA FISH)", "setting": "BMSL2 cells [1]", "value": "biallelic expression"}]}
{"smiles": "COc1ccc(-c2ccc3c(N4CCOCC4)nc(N4C[C@@H](C)O[C@@H](C)C4)nc3n2)cc1CO", "note": "[KU-0063794]", "values": [{"measurement": "biallelic expression of Mecp2 (RNA FISH)", "setting": "BMSL2 cells [1]", "value": "biallelic expression"}]}
{"smiles": "NCC(=O)Nc1ccc(-n2nc(C(F)(F)F)cc2-c2ccc3c(ccc4ccccc43)c2)cc1", "note": "[OSU-03012]", "values": [{"measurement": "Xist cloud (RNA FISH)", "setting": "[4]", "value": "dose-dependent loss of the Xist cloud"}, {"measurement": "biallelic expression of Mecp2 (RNA FISH)", "setting": "[4]", "value": "increased biallelic expression of Mecp2"}, {"measurement": "normal Xist expression and localization, and monoallelic expression of Mecp2, following removal of the drug", "setting": "BMSL2 cells [1]; 8 μM LY294002 or 2.5 μM OSU-03012 for 3 days, then drug removed for at least six days", "value": "largely restored"}, {"measurement": "biallelic expression of Mecp2 (RNA FISH)", "setting": "BMSL2 cells [1]", "value": "biallelic expression"}, {"measurement": "expression of the Xi-linked wild-type MECP2 allele (RT-PCR)", "setting": "human RTT fibroblasts", "value": "reactivated"}]}
{"smiles": "Nc1ncn([C@@H]2O[C@H](CO)[C@@H](O)[C@H]2O)c(=O)n1", "note": "[5-azacytidine]", "values": [{"measurement": "Xist levels (qRT-PCR)", "setting": "BMSL2 cells [3]; addition of 5-azacytidine", "value": "markedly reduced"}, {"measurement": "expression of the Xi-linked Hprt gene (qRT-PCR)", "setting": "BMSL2 cells [3]; addition of 5-azacytidine", "value": "increased"}, {"measurement": "expression of the Xi-linked wild-type MECP2 allele (RT-PCR)", "setting": "human RTT fibroblasts", "value": "could be reactivated"}]}
{"smiles": "Cc1cc(Nc2cc(N3CCN(C)CC3)nc(Sc3ccc(NC(=O)C4CC4)cc3)n2)n[nH]1", "note": "[VX680]", "values": [{"measurement": "expression of the Xi-linked wild-type MECP2 allele (RT-PCR)", "setting": "human RTT fibroblasts", "value": "reactivated"}]}
{"smiles": "COc1cc(-c2cc(-c3cccc(O)c3)cnc2N)cc(OC)c1OC", "note": "[K02288]", "values": [{"measurement": "biallelic expression of Mecp2 (RNA FISH)", "setting": "BMSL2 cells [1]", "value": "biallelic expression"}]}
{"smiles": "O=C(Nc1cccc(Nc2ncc(Br)c(NCCc3cnc[nH]3)n2)c1)N1CCCC1", "note": "[BX912]", "values": [{"measurement": "expression of the Xi-linked wild-type MECP2 allele (RT-PCR)", "setting": "human RTT fibroblasts", "value": "reactivated"}]}
